Measurements reported in PubChem BioAssay (NCI).
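Where inhibition never reached the appropriate level, the endpoint shown equals the highest concentration tested. Otherwise, values were interpolated linearly from a five-concentration, 48-hour dose response in 96-well plates. GI50 = concentration required for 50% inhibition of growth. TGI denotes the concentration required for complete inhibition of growth.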

Columns and labels:
Assay in all cases: NCI-60 cell line screen, 48 h
LOX IMVI melanoma = system: LOX IMVI melanoma
SK-MEL-5 melanoma = system: SK-MEL-5 melanoma
RXF 393 renal = system: RXF 393 renal
UO-31 renal = system: UO-31 renal
A498 renal = system: A498 renal
HCC-2998 colon = system: HCC-2998 colon
NCI-H23 lung = system: NCI-H23 lung
RPMI-8226 leukemia = system: RPMI-8226 leukemia
NCI-H522 lung = system: NCI-H522 lung
CCRF-CEM leukemia = system: CCRF-CEM leukemia
SK-MEL-28 melanoma = system: SK-MEL-28 melanoma
MOLT-4 leukemia = system: MOLT-4 leukemia
K-562 leukemia = system: K-562 leukemia
OVCAR-4 ovarian = system: OVCAR-4 ovarian
UACC-257 melanoma = system: UACC-257 melanoma
BT-549 breast = system: BT-549 breast
786-0 renal = system: 786-0 renal
DU-145 prostate = system: DU-145 prostate
HCT-116 colon = system: HCT-116 colon
UACC-62 melanoma = system: UACC-62 melanoma
SR leukemia = system: SR leukemia
NCI-H460 lung = system: NCI-H460 lung
M14 melanoma = system: M14 melanoma
MDA-MB-231 breast = system: MDA-MB-231 breast
OVCAR-5 ovarian = system: OVCAR-5 ovarian
SN12C renal = system: SN12C renal
NCI/ADR-RES ovarian = system: NCI/ADR-RES ovarian
HT29 colon = system: HT29 colon
HOP-92 NSCLC = system: HOP-92 NSCLC
SF-295 CNS = system: SF-295 CNS
SNB-75 CNS = system: SNB-75 CNS
MCF7 breast = system: MCF7 breast
NCI-H226 lung = system: NCI-H226 lung
HOP-62 NSCLC = system: HOP-62 NSCLC
COLO 205 colon = system: COLO 205 colon
HCT-15 colon = system: HCT-15 colon
TK-10 renal = system: TK-10 renal
SW-620 colon = system: SW-620 colon
SK-MEL-2 melanoma = system: SK-MEL-2 melanoma
SNB-19 CNS = system: SNB-19 CNS
MDA-MB-435 = system: MDA-MB-435
HL-60(TB) leukemia = system: HL-60(TB) leukemia
U251 CNS = system: U251 CNS
PC-3 prostate = system: PC-3 prostate
ACHN renal = system: ACHN renal
CAKI-1 renal = system: CAKI-1 renal
MALME-3M melanoma = system: MALME-3M melanoma
SK-OV-3 ovarian = system: SK-OV-3 ovarian
HS 578T breast = system: HS 578T breast
T-47D breast = system: T-47D breast
OVCAR-8 ovarian = system: OVCAR-8 ovarian
IGROV1 ovarian = system: IGROV1 ovarian
EKVX NSCLC = system: EKVX NSCLC
KM12 colon = system: KM12 colon
SF-539 CNS = system: SF-539 CNS
A549 NSCLC = system: A549 NSCLC
SF-268 CNS = system: SF-268 CNS

Which results are given for `CCCCCCNC(=O)Oc1ccc(/C(=C(\C)c2ccc(Cl)cc2)c2ccc(OCCN(C)C)cc2)cc1`?
GI50 (LOX IMVI melanoma): 1630 nM; TGI (LOX IMVI melanoma): 2990 nM; GI50 (SK-MEL-5 melanoma): 1770 nM; TGI (SK-MEL-5 melanoma): 3250 nM; GI50 (RXF 393 renal): 1330 nM; TGI (RXF 393 renal): 2720 nM; GI50 (UO-31 renal): 1310 nM; TGI (UO-31 renal): 2770 nM; GI50 (A498 renal): 2690 nM; TGI (A498 renal): 12100 nM; GI50 (HCC-2998 colon): 2060 nM; TGI (HCC-2998 colon): 4290 nM; GI50 (NCI-H23 lung): 2240 nM; TGI (NCI-H23 lung): 5710 nM; GI50 (RPMI-8226 leukemia): 1900 nM; TGI (RPMI-8226 leukemia): 4300 nM; GI50 (NCI-H522 lung): 1780 nM; TGI (NCI-H522 lung): 3420 nM; GI50 (CCRF-CEM leukemia): 1890 nM; TGI (CCRF-CEM leukemia): 5640 nM; GI50 (SK-MEL-28 melanoma): 1780 nM; TGI (SK-MEL-28 melanoma): 3260 nM; GI50 (MOLT-4 leukemia): 1930 nM; TGI (MOLT-4 leukemia): 5270 nM; GI50 (K-562 leukemia): 1660 nM; TGI (K-562 leukemia): 7210 nM; GI50 (OVCAR-4 ovarian): 1940 nM; TGI (OVCAR-4 ovarian): 4650 nM; GI50 (UACC-257 melanoma): 1760 nM; TGI (UACC-257 melanoma): 3280 nM; GI50 (BT-549 breast): 2880 nM; TGI (BT-549 breast): 9200 nM; GI50 (786-0 renal): 1740 nM; TGI (786-0 renal): 3270 nM; GI50 (DU-145 prostate): 2020 nM; TGI (DU-145 prostate): 3920 nM; GI50 (HCT-116 colon): 1530 nM; TGI (HCT-116 colon): 3000 nM; GI50 (UACC-62 melanoma): 1720 nM; TGI (UACC-62 melanoma): 3320 nM; GI50 (SR leukemia): 1680 nM; TGI (SR leukemia): 4100 nM; GI50 (NCI-H460 lung): 1700 nM; TGI (NCI-H460 lung): 3120 nM; GI50 (M14 melanoma): 1690 nM; TGI (M14 melanoma): 3190 nM; GI50 (MDA-MB-231 breast): 1770 nM; TGI (MDA-MB-231 breast): 3380 nM; GI50 (OVCAR-5 ovarian): 4260 nM; TGI (OVCAR-5 ovarian): 17100 nM; GI50 (SN12C renal): 1680 nM; TGI (SN12C renal): 3220 nM; GI50 (NCI/ADR-RES ovarian): 3120 nM; TGI (NCI/ADR-RES ovarian): 11800 nM; GI50 (HT29 colon): 1710 nM; TGI (HT29 colon): 3370 nM; GI50 (HOP-92 NSCLC): 1020 nM; TGI (HOP-92 NSCLC): 2220 nM; GI50 (SF-295 CNS): 1750 nM; TGI (SF-295 CNS): 3200 nM; GI50 (SNB-75 CNS): 1690 nM; TGI (SNB-75 CNS): 7120 nM; GI50 (MCF7 breast): 216 nM; TGI (MCF7 breast): 2190 nM; GI50 (NCI-H226 lung): 4260 nM; TGI (NCI-H226 lung): 18100 nM; GI50 (HOP-62 NSCLC): 1630 nM; TGI (HOP-62 NSCLC): 3180 nM; GI50 (COLO 205 colon): 1680 nM; TGI (COLO 205 colon): 3100 nM; GI50 (HCT-15 colon): 1720 nM; TGI (HCT-15 colon): 3300 nM; GI50 (TK-10 renal): 1840 nM; TGI (TK-10 renal): 4080 nM; GI50 (SW-620 colon): 1600 nM; TGI (SW-620 colon): 3030 nM; GI50 (SK-MEL-2 melanoma): 1870 nM; TGI (SK-MEL-2 melanoma): 3800 nM; GI50 (SNB-19 CNS): 3310 nM; TGI (SNB-19 CNS): 12400 nM; GI50 (MDA-MB-435): 1720 nM; TGI (MDA-MB-435): 3240 nM; GI50 (HL-60(TB) leukemia): 1620 nM; TGI (HL-60(TB) leukemia): 4300 nM; GI50 (U251 CNS): 1590 nM; TGI (U251 CNS): 3040 nM; GI50 (PC-3 prostate): 1440 nM; TGI (PC-3 prostate): 2840 nM; GI50 (ACHN renal): 1880 nM; TGI (ACHN renal): 3770 nM; GI50 (CAKI-1 renal): 1330 nM; TGI (CAKI-1 renal): 2650 nM; GI50 (MALME-3M melanoma): 1720 nM; TGI (MALME-3M melanoma): 3260 nM; GI50 (SK-OV-3 ovarian): 2220 nM; TGI (SK-OV-3 ovarian): 6920 nM; GI50 (HS 578T breast): 1550 nM; TGI (HS 578T breast): 3530 nM; GI50 (T-47D breast): 1450 nM; TGI (T-47D breast): 4120 nM; GI50 (OVCAR-8 ovarian): 1600 nM; TGI (OVCAR-8 ovarian): 3100 nM; GI50 (IGROV1 ovarian): 1810 nM; TGI (IGROV1 ovarian): 3570 nM; GI50 (EKVX NSCLC): 3830 nM; TGI (EKVX NSCLC): 16500 nM; GI50 (KM12 colon): 1870 nM; TGI (KM12 colon): 3610 nM; GI50 (SF-539 CNS): 1740 nM; TGI (SF-539 CNS): 3120 nM; GI50 (A549 NSCLC): 1630 nM; TGI (A549 NSCLC): 3130 nM; GI50 (SF-268 CNS): 2390 nM; TGI (SF-268 CNS): 7630 nM
